From patent US9492468B2, “Methods and compositions for treatment of acute heart failure” (PERICOR THERAPEUTICS, INC., priority 2008, dated 2016)
Structures can show the parent of a compound that is named as a salt.

Key:
[1] = system: dogs with advanced heart failure; test: Dose escalation / bolus plus infusion study, hemodynamic and ventriculographic measures; type: in vivo, dog; settings: for Effect on EF (LVEF) / Effect on ESV: dose dependent; for Hemodynamic and ventriculographic benefits after discontinuation: one hour after discontinuation of infusion
Procedure: Studies were performed in purpose-bred, healthy and conditioned mongrel dogs weighing between 20 and 30 kg. The study was approved by Henry Ford Health System Institutional Animal Care and Use Committee and conformed to the National Institute of Health “Guide and Care for Use of Laboratory Animals” and the “Position of the American Heart Association on Research Animal Use” (Position of the American Heart Association on Research Animal Use. Circulation 1985; 71; 49A-50A).
Chronic LV dysfunction and failure was produced by multiple sequential intracoronary embolizations with polystyrene Latex; coronary microembolizations were performed during cardiac catheterization under general anesthesia and sterile conditions (Sabbah H N, et al. Am J Physiol (1991) 260:H1379-84; Sabbah H N, et al. Circulation (1994) 89:2852-9; Sabbah H N, et al. Am J Cardiol 99:41 A-46A, (2007)). Anesthesia was induced using a combination of intravenous injections of oxymorphone hydrochloride (0.22 mg/kg) and diazepam (0.2-0.6 mg/kg). Plane of anesthesia was maintained throughout the study using 1% to 2% isoflurane. Left and right heart catheterizations were performed via a femoral arteriotomy and venotomy. Coronary microembolizations were discontinued when LV ejection fraction, determined angiographically, was about 25%. A period of 2 weeks was allowed after the last microembolization to ensure that infarctions produced by the last microembolizations have completely healed and heart failure was established before the study is undertaken.
(§1) Eight heart failure dogs described in Example 1 were used. Seven of 8 dogs underwent two studies, one with active drug GP-531 tartrate and one with vehicle (placebo) and 1 of 8 dogs underwent only one active drug GP-531 study. The order of active drug and placebo was randomized and performed about one week apart. In 6 of 8 dogs, after baseline hemodynamic, and ventriculographic measurements, vehicle was administered as a continuous intravenous infusion for one hour. At the end of one hour, the active drug GP-531 tartrate was administered in 3 escalating dose of continuous intravenous infusion with each dose maintained for one hour. At the end of the last drug dose, infusion was stopped and a washout period of one hour was instituted. The same infusion rates and times between doses were used when vehicle studies were performed. At the end of each hour, hemodynamic and angiographic measurements were made. Venous blood samples were obtained at baseline and at one hour after each dose. Blood samples (at least 10 mL) were centrifuged at 3000 rpm for 10 minutes and plasma withdrawn and placed in cryostorage tubes and stored upright at −20° C. for future use. In 2 of 8 dogs, active drug was administered as bolus followed by a constant infusion for 3 hours as noted below.
Active drug was used in dog groups as follows:
1. In 3 of 8 dogs, escalating doses of 30, 100 and 300 μg/kg/min GP-531 tartrate were used (Group I)
2. In another 3 of 8 dogs, escalating doses of 3, 10 and 30 μg/kg/min GP-531 tartrate were used (Group II).
3. In 1 of 8 dogs, active drug was administered as 700 μg/kg GP-531 tartrate bolus followed by a constant infusion of 10 μg/kg/min GP-531 tartrate for 3 hours.
4. In another 1 of 8 dogs, two active drug studies were performed. In one study, active drug was administered as 70 μg/kg bolus followed by a constant infusion of 1.0 μg/kg/min for 4 hours and in the second study, active drug was administered as 210 μg/kg bolus followed by a constant infusion of 3.0 μg/kg/min for 4 hours.
Study Primary End-Points were: (1) change in LV ejection fraction determined from ventriculography and (2) change in LV end-systolic and end-diastolic volume determined from ventriculography.
All hemodynamic measurements were made during left and right heart catheterizations in anesthetized dogs at each specified study time point. […]

[2] = system: NT-ProBNP; test: Plasma NT-proBNP (competitive ELISA), dose escalation study; type: in vivo, dog
Procedure: as §1
Plasma biomarkers were measured in Groups I and II. Troponin I (TnI) was determined in plasma based on the principle of the double antibody sandwich enzyme-linked immunosorbent assay (ELISA) (Hirano, T., et al., Immunol Today 1990, 11:443-449) and n-terminal brain natriuretic peptide (NT-pro-BNP) based on competitive ELISA (Bonow, R. O. Circulation 1996, 93:1946-1950). Both biomarkers were assayed using commercially available assay kits. Kits for NT proBNP and TnI were purchased from ALPCO Diagnostics, Salem, N.H. Using standard curves and software, the concentration of each biomarker was expressed as ng/ml for TnI and fmol/ml for NT-proBNP.

[3] = 1 HF dog, 210 μg/kg bolus then 3.0 μg/kg/min for 4 h
[4] = 1 HF dog, 210 μg/kg bolus then 3.0 μg/kg/min, end of 4 h
[5] = 1 HF dog, 700 μg/kg bolus then constant infusion 10 m/kg/min (so in the source) for 3 h
[6] = 1 HF dog, 700 μg/kg bolus then constant infusion 10 m/kg/min (so in the source), end of 3 h
[7] = Group I HF dogs n=3, 1 h washout after 30/100/300 μg/kg/min
[8] = Group I HF dogs n=3, escalating 30, 100, 300 μg/kg/min, vs baseline
[9] = Group I HF dogs n=3, escalating 30, 100, 300 μg/kg/min, vs baseline, listed as GP-531 tartrate salt
[10] = Group II HF dogs n=3, 1 h washout after 3/10/30 μg/kg/min
[11] = Group II HF dogs n=3, escalating 3, 10, 30 μg/kg/min, not statistically significant vs baseline
[12] = Group II HF dogs n=3, escalating 3, 10, 30 μg/kg/min, vs baseline

## NC(=O)c1ncn(C2OC(CNCc3ccccc3)C(O)C2O)c1N (centres unmarked) [GP-531 tartrate]
[1]; [3]
  Effect on CO: minimal or modest changes
  Effect on HR: modest reduction
  Effect on LVEDP: modest reduction
  Effect on SV: minimal or modest changes
  Effect on SVR: minimal or modest changes
  Effect on mAoP: modest reduction
[1]; [4]
  Effect on EDV: essentially no change
  Increase in EF: 44%
  Reduction in ESV: ~20%
[1]; [5]
  Effect on CO: minimal or modest changes
  Effect on HR: modest reduction
  Effect on LVEDP: substantial drop
  Effect on SV: minimal or modest changes
  Effect on SVR: minimal or modest changes
  Effect on mAoP: modest reduction
[1]; [6]
  Increase in EF: 30%
  Reduction in EDV: ~10%
  Reduction in ESV: 20%
[1]; [7]
  Cardiac output (CO): 1.72 ± 0.17 L/min
  Heart rate (HR): 85 ± 7 beats/min
  LV end-diastolic pressure (LVEDP): 13 ± 1 mmHg
  LV end-diastolic volume (EDV): 70 ± 5 mL
  LV end-systolic volume (ESV): 49 ± 4 mL
  Mean aortic pressure (mAoP): 73 ± 6 mmHg
  Stroke volume (SV): 20 ± 2 mL
  Systemic vascular resistance (SVR): 3445 ± 310 dynes-sec-cm^−5
[1]; [8]
  Effect on CO: significant increase
  Effect on EDV: modest and not statistically significant effect on reducing
  Effect on HR: no effect
  Effect on LVEDP: significantly decreased
  Effect on SV: significant increase
  Effect on SVR: decrease
  Effect on mAoP: no effect
  Effect on EF (LVEF): increased
  Effect on ESV: significantly decreased
[1]; [9]
  Effect on EF (LVEF): increase
  Effect on ESV: significant decrease
[1]; Group I HF dogs
  Hemodynamic and ventriculographic benefits after discontinuation: attenuated but in many instances remained significantly better than baseline values
[1]; [10]
  Cardiac output (CO): 1.50 ± 0.02 L/min
  Heart rate (HR): 80 ± 5 beats/min
  LV end-diastolic pressure (LVEDP): 12 ± 1 mmHg
  LV end-diastolic volume (EDV): 59 ± 4 mL
  LV end-systolic volume (ESV): 40 ± 2 mL
  Mean aortic pressure (mAoP): 66 ± 3 mmHg
  Stroke volume (SV): 19 ± 2 mL
  Systemic vascular resistance (SVR): 3511 ± 176 dynes-sec-cm^−5
[1]; [11]
  Effect on CO: modestly increased
  Effect on SV: modestly increased
  Effect on SVR: modestly decreased
[1]; [12]
  Effect on EDV: no effects
  Effect on HR: no effect
  Effect on LVEDP: significantly decreased
  Effect on mAoP: no effect
  Effect on EF (LVEF): increased
  Effect on ESV: significantly decreased
[1]; Group II HF dogs n=3, escalating 3, 10, 30 μg/kg/min, vs baseline, listed as GP-531 tartrate salt
  Effect on EF (LVEF): increase
[1]; Group II HF dogs
  Hemodynamic and ventriculographic benefits after discontinuation: attenuated but in many instances remained significantly better than baseline values
[1]; HF dogs, iv 3 to 300 μg/kg/min
  Adverse positive chronotropic effects: not associated with any adverse positive chronotropic effects
[1]; HF dogs, iv 3 to 300 μg/kg/min over at least one hour
  LV systolic function: can improve LV systolic function
[1]; bolus injection 700 μg/kg followed by 3 hour constant infusion 10 μg/kg/min
  Effect on LVEF (FIG. 3): increase
[2]; Group I HF dogs, all doses (30, 100, 300 μg/kg/min), vs baseline
  Effect on plasma NT-Pro-BNP: decreased significantly
[2]; Group II HF dogs, 3, 10, 30 μg/kg/min, significance only at 30 μg/kg/min
  Effect on plasma NT-proBNP: tended to decrease with escalating doses
